From patent US10101322B2, “Photoactivated chemical bleaching of dyes using borates” (GENERAL ELECTRIC COMPANY, priority 2015, dated 2018)
Entries after “also recorded” stand apart in the source; their conditions may differ.

Legend:
[1] = Eosin Y bleaching with borates in water; settings: aqueous solution; in Example 2A 0.5 mM borate, 1 minute, 100 W halogen lamp
Description: To a 2 mL solution of Eosin in water (2.26×10^-5M solution), 2 mL of 0.5 mM of cationic Borate (e′), Cationic Borate (f′) or anionic borate (MBB) were added, and the solution was irradiated for 1 minute using 100 W halogen lamp. […] FIG. 6 is a bar graph comparing bleaching kinetics of eosin by different borates MBB (a), e′ (b), and f′ (c).

[2] = Eosin Y bleaching with borates in ethanol; settings: 1 mM borate, 2 min irradiation, 100 W halogen lamp
Description: To a 2 mL solution of Eosin in ethanol (2.5×10^-5M solution), 2 mL of 1 mM of anionic borate (MBB), a neutral borate a, (Formula I) or a neutral borate b (Formula I) were added and the solution was irradiated for 1-2 minutes using 100 W halogen lamp. Absorbance at λmax of dye was measured to monitor photobleaching, and the results were plotted, as is shown in the bar graph plot of FIG. 7.

[3] = Cy3 dye bleaching with borates in ethanol; settings: 1 mM borate, 1 minute, 100 W halogen lamp, absorbance at 552 nm
Description: To a 2 mL solution of previously hydrolyzed Cy3 bisreactive dye (GE Healthcare) in ethanol (2.5×10^-5M solution), 2 mL of 1 mM solution of one of the following borates: anionic borate (MBB), neutral borate, a or b (Formula I), and cationic borates e′ or f′ in ethanol was added. Samples were irradiated for 1 minute using 100 W halogen lamp. The decrease in Cy3 absorbance at 552 nm was measured to monitor photobleaching, and the results were plotted, as is shown in FIG. 8. The bar graph compares the bleaching kinetics of Cy3 by different borates in ethanol.

[4] = Cy3 bleaching with borates in water; settings: aqueous solution; in Example 2D 0.5 mM borate, 100 W halogen lamp, absorbance at 552 nm
Description: To a 2 mL solution of previously hydrolyzed Cy3 bis reactive dye in water (3.4×10^-5M solution), 2 mL of 0.5 mM solution of anionic borate (MBB), cationic borate (e′) or cationic borate (f′) were added and the solution was irradiated. […] FIG. 10 is a bar graph comparing bleaching kinetics of Cy3 by different borates.

[5] = Stability of solid borate on exposure to air (1H NMR, colour)
[6] = Charge transfer complex formation between Eosin-Y and cationic borate (UV-Vis titration); assay type: physicochemical; settings: without irradiation
Description: A 50 ul of 1 mM eosin solution in water was further diluted to 3 ml with water and to this was added 1 mM solution of f′ (Formula I) in water in 25 ul portions. UV-Vis spectrum was acquired after every 25 μL f′ addition.
This is believed to be due an electrostatic charge-transfer complex formulation between cationic borate: eosin-y complex.
This phenomenon may be attributed to formation of charge-transfer complex between anionic Eosin-Y and cationic Borate. The electrostatic charge transfer formation is responsible for quenching of Eosin-Y fluorescence.

[7] = Residual eosin bleaching (PICB) in H&E stained tissue sections; set-up: species or system Human; settings: 0.15 mM f′, irradiation in presence of DABCO, three cycles
Description: Human breast tissue array samples were obtained as tissue slides embedded in paraffin from Clarient (Huntsville, Ala.). Slides were baked at 60° C. for 15 minutes and then washed with xylene (1×10 min) to remove paraffin.
All the slides were stained with hematoxylin and eosin and coverslipped following the standard procedures in the literature (IHC World LLC, Protocol Database, Hematoxylin and Eosin (H&E) Staining Protocol). After staining, the images were obtained as described below.
Bright field and Fluorescence images were taken for all the slides using Leica bright field microscope and Olympus IX81 fluorescence microscope (Olympus Co., Tokyo, Japan respectively. For fluorescence imaging the following excitation filters were used: eosin 500/40 nm, Cy3 550/40 nm and Cy5 650/40 nm.
After imaging, samples were decoverslipped by incubation in xylenes overnight and hydrated by washing in four solutions of ethanol with concentrations decreasing in the order of 100%, 95%, 70%, and 50% followed by a wash with 1× phosphate buffer saline (PBS, pH 7.4). After rehydration, the slides were washed with 1×PBS. A ten minute incubation in 0.3% Triton X-100 in PBS was performed for membrane permeabilization of the tissue, followed by a wash with 1×PBS.
Hydrated slides were treated with dual-buffer heat-induced epitope retrieval. […] Slides were imaged by brightfield and fluorescence microscopy. […]

[8] = tested on: Her2/CEP17 DNA FISH signal; experiment: DNA FISH signal bleaching and FISH on PICB bleached slides; set-up: species or system Human
Description: Slides were H&E stained and bleached as described above. Alternatively previously imaged and archived H&E slides were processed through the steps of decoverslipping, hydration, antigen retrieval, blocking and bleaching with f′ as described above for freshly stained H&E slides.
Slides were immersed in a pre-warmed 0.1% pepsin solution for 8 minutes then placed in room temperature PBS for 2 minutes. Samples were re-fixed in 4% formalin for 10 minutes then washed 2×5 minutes in PBS. Slides were dehydrated in ethanol series 50%, 70%, and 95%, 2 minutes each and allowed to dry on bench top for 10 minutes. Pre-mixed dual Her2/CEP17 probe was vortexed, spun, and added to samples. Samples were coverslipped and sealed with a rubber sealant per usual practice. After allowing rubber cement to cure for 10 minutes, probes were hybridized in Thermobrite cycler: 80° C. denaturation for 10 minutes followed by 37° C. incubation overnight. Rubber cement was removed and slides were decoverslipped in preheated 37° C. 2×SSC for 5 minutes. […] Slides were washed 2×2 minutes with 2×SSC, removed from buffer to dry, coverslipped with 4% DABCO in 90% glycerol/2×SSC, and imaged on an Olympus IX81 fluorescence microscope using a 40× objective with following exposure times: for DAPI (2 ms), spectrum green (CEP17-200 ms), and spectrum orange (Her2-400 ms). […]

SMILES | Eosin-Y photobleaching compared to anionic borate (MBB) [1] | order of Eosin photobleaching kinetics [2] | Cy3 bleaching kinetics [3] | Cy3 bleaching kinetics compared to anionic borate (MBB) [4] | time to evidence of decomposition ([5]; exposure to air) | colour change on exposure to air ([5]; white solid stored inertly) | bathochromic (red-shift) of the Eosin-Y peak ([6]; 1 mM f′ added in 25 ul portions to eosin in water) | colour change of eosin solution on borate addition ([6]; water) | bleaching of residual eosin signal in tissue [7] | bleaching of DNA FISH signal [8] | decomposition ([5]; after 2 months of exposure to air) | degradation by 1 HNMR ([5]; solid form, exposure to air for over 5 weeks)
C[N+](C)(C)c1ccc([B-](c2ccc([N+](C)(C)C)cc2)(C2CCCC2)C2CCCC2)cc1.[I-] [e′] | improved | cationic>neutral>anionic | performed well | much faster bleaching kinetics | – | – | – | – | – | – | – | –
c1ccc(C[B-](c2ccccc2)(c2ccccc2)c2ccccc2)cc1 [MBB, monobenzyltriphenyl borate, reference compound] | – | cationic>neutral>anionic | – | – | < 10 min | becoming yellow in color immediately on exposure to air | – | – | – | – | – | –
COS(=O)(=O)[O-].C[N+](C)(C)c1ccc([B-](c2ccc([N+](C)(C)C)cc2)(C2CCCC2)C2CCCC2)cc1 [f′] | significantly improved | cationic>neutral>anionic | performed well | significantly improved; also recorded: much faster bleaching kinetics | – | – | 518 nm shifts to 523 nm | clear change in color to non-fluorescent pink | efficient bleaching; also recorded: efficiently bleach eosin; also recorded: effective bleaching; also recorded: mostly removed | erased | ~2% | no degradation
